Experimental data published in ChEMBL document CHEMBL1201862, “PubChem BioAssay data set” (2004).
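Method: 48-hour compound exposure of cells in 96-well plates, five concentrations, linear interpolation of endpoints. GI50 is the concentration that inhibits growth by half.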 Activity calls are given as the source filed them. Cut-off read from the data, not from the text of the source: active = GI50 up to about 1.1 µM and inactive = higher.

Assays:
Assay in all cases: NCI-60 cell line screen, 48 h
MDA-MB-435 = system: MDA-MB-435
NCI-H23 = system: NCI-H23
SK-OV-3 = system: SK-OV-3
SR = system: SR
Malme-3M = system: Malme-3M
ACHN = system: ACHN
HCT-116 = system: HCT-116
OVCAR-5 = system: OVCAR-5
RXF 393 = system: RXF 393
SN12C = system: SN12C
UO-31 = system: UO-31
HCC 2998 = system: HCC 2998
A498 = system: A498
HOP-92 = system: HOP-92
OVCAR-4 = system: OVCAR-4
HL-60 = system: HL-60
KM12 = system: KM12
NCI-H226 = system: NCI-H226
NCI/ADR-RES = system: NCI/ADR-RES
RPMI-8226 = system: RPMI-8226

Structure (SMILES)	GI50 (MDA-MB-435)	GI50 (NCI-H23)	GI50 (SK-OV-3)	GI50 (SR)	GI50 (Malme-3M)	GI50 (ACHN)	GI50 (HCT-116)	GI50 (OVCAR-5)	GI50 (RXF 393)	GI50 (SN12C)	GI50 (UO-31)	GI50 (HCC 2998)	GI50 (A498)	GI50 (HOP-92)	GI50 (OVCAR-4)	GI50 (HL-60)	GI50 (KM12)	GI50 (NCI-H226)	GI50 (NCI/ADR-RES)	GI50 (RPMI-8226)
CN1CCN(c2ccc3[nH]c(-c4ccc5[nH]c(-c6ccc(O)cc6)nc5c4)nc3c2)CC1	8.28 µM (inactive)	240 µM (inactive)	664 µM (inactive)	28.1 µM (inactive)	2.64 µM (inactive)	281 µM (inactive)	13.5 µM (inactive)	473 µM (inactive)	130 µM (inactive)	127 µM (inactive)	564 µM (inactive)	151 µM (inactive)	241 µM (inactive)	33.7 µM (inactive)	274 µM (inactive)	11.9 µM (inactive)	242 µM (inactive)	170 µM (inactive)	482 µM (inactive)	–
CN(C)c1ncnc2c1ncn2CCn1cnc2c(N(C)C)ncnc21	> 100 µM (inactive)	> 100 µM (inactive)	> 100 µM (inactive)	2.28 µM (inactive)	> 100 µM (inactive)	> 100 µM (inactive)	> 100 µM (inactive)	> 100 µM (inactive)	> 100 µM (inactive)	> 100 µM (inactive)	> 100 µM (inactive)	> 100 µM (inactive)	> 100 µM (inactive)	> 100 µM (inactive)	> 100 µM (inactive)	> 100 µM (inactive)	> 100 µM (inactive)	–	> 100 µM (inactive)	> 100 µM (inactive)
C=CCCC(=O)CC(O)(C(F)(F)F)C(F)(F)F	> 100 µM (inactive)	> 100 µM (inactive)	> 100 µM (inactive)	> 100 µM (inactive)	> 100 µM (inactive)	> 100 µM (inactive)	> 100 µM (inactive)	> 100 µM (inactive)	> 100 µM (inactive)	–	> 100 µM (inactive)	> 100 µM (inactive)	> 100 µM (inactive)	> 100 µM (inactive)	> 100 µM (inactive)	> 100 µM (inactive)	> 100 µM (inactive)	> 100 µM (inactive)	> 100 µM (inactive)	> 100 µM (inactive)
c1ccc(C2=Nn3c(CCCCCCCCc4nnc5n4N=C(c4ccccc4)CS5)nnc3SC2)cc1	> 100 µM (inactive)	> 74.6 µM (inactive)	25.9 µM (inactive)	> 68.5 µM (inactive)	28.2 µM (inactive)	40.6 µM (inactive)	> 66.1 µM (inactive)	> 75.9 µM (inactive)	20.5 µM (inactive)	> 88.1 µM (inactive)	> 67.3 µM (inactive)	> 100 µM (inactive)	39.1 µM (inactive)	34.2 µM (inactive)	> 100 µM (inactive)	–	> 100 µM (inactive)	72.1 µM (inactive)	> 79.8 µM (inactive)	> 100 µM (inactive)
C=C(Cl)COC(=O)Nc1cccc(Cl)c1	30.1 µM (inactive)	30.4 µM (inactive)	72.8 µM (inactive)	51.1 µM (inactive)	–	34.9 µM (inactive)	27 µM (inactive)	48.2 µM (inactive)	25 µM (inactive)	33.8 µM (inactive)	12 µM (inactive)	37.1 µM (inactive)	23.4 µM (inactive)	22.7 µM (inactive)	16.2 µM (inactive)	24.4 µM (inactive)	31.6 µM (inactive)	44.8 µM (inactive)	29.3 µM (inactive)	39.4 µM (inactive)
CC(=O)N(O)[C@@H]1CC[C@H](n2cnc3c(N)ncnc32)C1	> 100 µM (inactive)	> 100 µM (inactive)	> 100 µM (inactive)	> 100 µM (inactive)	> 100 µM (inactive)	> 100 µM (inactive)	> 100 µM (inactive)	> 100 µM (inactive)	> 100 µM (inactive)	> 100 µM (inactive)	> 100 µM (inactive)	> 100 µM (inactive)	> 100 µM (inactive)	> 100 µM (inactive)	> 100 µM (inactive)	–	> 100 µM (inactive)	> 100 µM (inactive)	> 100 µM (inactive)	> 100 µM (inactive)
Cc1ccc(C(=O)c2[nH]c(Nc3cc(C)ccn3)c(C(=S)Nc3ccccc3)c2N)cc1	> 100 µM (inactive)	> 100 µM (inactive)	> 100 µM (inactive)	> 100 µM (inactive)	> 100 µM (inactive)	> 100 µM (inactive)	> 100 µM (inactive)	> 100 µM (inactive)	> 100 µM (inactive)	> 100 µM (inactive)	> 100 µM (inactive)	> 100 µM (inactive)	> 100 µM (inactive)	> 100 µM (inactive)	> 100 µM (inactive)	> 100 µM (inactive)	> 100 µM (inactive)	> 100 µM (inactive)	> 100 µM (inactive)	–
COc1cccc2c1-c1ccccc1[C@H](Nc1ccccc1)[C@@]2(C)O	1.56 µM (inactive)	7.67 µM (inactive)	4.27 µM (inactive)	0.865 µM (active)	7.93 µM (inactive)	9.57 µM (inactive)	4.11 µM (inactive)	11.6 µM (inactive)	4.6 µM (inactive)	4.55 µM (inactive)	4.93 µM (inactive)	7.26 µM (inactive)	8.95 µM (inactive)	11.2 µM (inactive)	10.3 µM (inactive)	5.42 µM (inactive)	3.04 µM (inactive)	3.4 µM (inactive)	3.64 µM (inactive)	–
Cc1ccccc1-n1c(=O)c2ncn(CCCl)c2n(-c2ccccc2C)c1=S	> 100 µM (inactive)	> 100 µM (inactive)	> 100 µM (inactive)	> 100 µM (inactive)	–	> 100 µM (inactive)	> 100 µM (inactive)	> 100 µM (inactive)	> 100 µM (inactive)	> 100 µM (inactive)	> 100 µM (inactive)	> 100 µM (inactive)	> 100 µM (inactive)	> 100 µM (inactive)	> 100 µM (inactive)	> 100 µM (inactive)	> 100 µM (inactive)	> 100 µM (inactive)	> 100 µM (inactive)	> 100 µM (inactive)
COc1ccc(CNc2nc3ccccc3nc2C(=O)O)cc1OC	> 100 µM (inactive)	> 100 µM (inactive)	> 100 µM (inactive)	> 100 µM (inactive)	> 100 µM (inactive)	> 100 µM (inactive)	> 100 µM (inactive)	–	> 100 µM (inactive)	91.6 µM (inactive)	36.5 µM (inactive)	> 100 µM (inactive)	91.2 µM (inactive)	17.1 µM (inactive)	> 100 µM (inactive)	> 100 µM (inactive)	> 100 µM (inactive)	> 100 µM (inactive)	26.7 µM (inactive)	> 100 µM (inactive)
COC1=CC2(C=CC1=O)CCNC1=C2C(=O)c2nc[nH]c2C1=O (stereo not given)	> 100 µM (inactive)	> 100 µM (inactive)	> 100 µM (inactive)	> 100 µM (inactive)	> 100 µM (inactive)	> 100 µM (inactive)	> 100 µM (inactive)	> 100 µM (inactive)	> 100 µM (inactive)	> 100 µM (inactive)	> 100 µM (inactive)	> 100 µM (inactive)	> 100 µM (inactive)	> 100 µM (inactive)	> 100 µM (inactive)	> 100 µM (inactive)	> 100 µM (inactive)	–	> 100 µM (inactive)	> 100 µM (inactive)
Cc1nc2ccc(Cl)cc2c(-n2ccnc2)c1CCn1ccnc1	32.1 µM (inactive)	27.1 µM (inactive)	31 µM (inactive)	0.678 µM (active)	31.1 µM (inactive)	15.7 µM (inactive)	23.8 µM (inactive)	21.5 µM (inactive)	14.1 µM (inactive)	34 µM (inactive)	14.5 µM (inactive)	49.8 µM (inactive)	21.5 µM (inactive)	15.9 µM (inactive)	18.9 µM (inactive)	23.7 µM (inactive)	–	16.4 µM (inactive)	2.03 µM (inactive)	–
CCCCCCCCCCCCCCCCOCC(COP(=O)(O)OCC1OC(n2cc(CC)c(=O)[nH]c2=O)CC1O)OC(=O)CCCCCCCCCCCCCCC (stereo not given)	> 100 µM (inactive)	> 100 µM (inactive)	> 100 µM (inactive)	> 100 µM (inactive)	–	> 100 µM (inactive)	> 100 µM (inactive)	> 100 µM (inactive)	> 100 µM (inactive)	> 100 µM (inactive)	> 100 µM (inactive)	> 100 µM (inactive)	> 100 µM (inactive)	> 100 µM (inactive)	> 100 µM (inactive)	52 µM (inactive)	> 100 µM (inactive)	> 100 µM (inactive)	> 100 µM (inactive)	> 100 µM (inactive)
Cc1ccc(S(=O)(=O)NC(=O)NCCc2c[nH]cn2)cc1	> 100 µM (inactive)	> 100 µM (inactive)	> 100 µM (inactive)	> 100 µM (inactive)	> 100 µM (inactive)	> 100 µM (inactive)	> 100 µM (inactive)	> 100 µM (inactive)	> 100 µM (inactive)	–	> 100 µM (inactive)	> 100 µM (inactive)	> 100 µM (inactive)	> 100 µM (inactive)	> 100 µM (inactive)	> 100 µM (inactive)	> 100 µM (inactive)	> 100 µM (inactive)	> 100 µM (inactive)	> 100 µM (inactive)
